The values below come from US4495104A, “Quinone carboxylic acids and ester derivatives” (Takeda Chemical Industries, Ltd., priority 1980, dated 1985).

Each structure is given as a SMILES string.

One assay relates to SRS-A production. The assay can be described thus: Inhibition of SRS-A production and release in sensitized guinea-pig lung fragments (egg albumin antigen). Format: cell-based, quinea-pig. The conditions noted are these: lung fragments sensitized with egg albumin, compound dissolved in ethanol or dimethyl sulfoxide, read-out: Inhibitory effect on SRS-A production (%); for inhibition at 10 µM: concentration 10 μM. As for the experimental part:
Further, we investigated the effect of the present compound (I) on the production and release of the slow reacting substance of anaphylaxis (hereinafter, SRS-A) which has been mentioned as a main factor in asthma. Thus, in accordance with the method of Orange and Moore (J. Immunol., 116, 392-397, 1976), the present compound (I) was added to a quinea-pig lung fragments sensitized with egg albumin as the antigen, and the amount of SRS-A produced and released as a consequence was assayed by the method of Brocklehurst (J. Physiol., 151, 416-435, 1960).
^(1) The compound was added as dissolved in ethanol or dimethyl
^(2) The inhibitory effect on SRSA production was expressed as the %
inhibition of production and release of SRSA.

The next assay relates to succinate oxidase. As to the kind of experiment: Mitochondrial electron-transport activity determined as succinate oxidase activity in ubiquinone-depleted enzyme preparations. To be noted: level of addition 10 n moles; ubiquinone-depleted enzyme preparation; control 19.34 ± 1.42. Format: biochemical. How it is done:
^(1) Ubiquinonedepleted enzyme preparations were prepared in
accordance with Lester and Fleischer (Biochem. Biophys. Acta., 47,358-377
1961). The electrontransport activity was determined based on succinate

With `COC1=C(OC)C(=O)C(CCCCCCCCCCCCC(=O)O)=C(C)C1=O` [R:H, n:12, 6-(12-carboxydodecyl)-2,3-dimethoxy-5-methyl-1,4-benzoquinone], the inhibition at 1 µM in the assay on SRS-A production (concentration 1 μM) was found to be 60 ± 3.3%. Moreover, the inhibition at 10 µM with SRS-A production came to 87.2 ± 5.5%. Besides, the “Succinate oxidase activity [oxygen consumption per mg enzyme protein during 1 minute (n atoms oxygen)]” value with succinate oxidase came out at 96.05 n atoms oxygen.

With `COC1=C(OC)C(=O)C(CCCCCCCCCCCCCCCCCC(=O)O)=C(C)C1=O` [R:H, n:17, 6-(17-carboxyheptadecyl)-2,3-dimethoxy-5-methyl-1,4-benzoquinone], in the assay on SRS-A production, the inhibition at 10 µM was determined as 82.8 ± 4.4%. Besides, the “Succinate oxidase activity [oxygen consumption per mg enzyme protein during 1 minute (n atoms oxygen)]” value in the assay on succinate oxidase came out at 112.05 n atoms oxygen.

Turning to `COC1=C(OC)C(=O)C(CCCCCCCCCCCCCCCCCCCCCC(=O)O)=C(C)C1=O` [R:H, n:21, 6-(21-carboxyheneicosyl)-2,3-dimethoxy-5-methyl-1,4-benzoquinone], in the assay on SRS-A production, the inhibition at 10 µM amounted to 80.5 ± 0.5%.

Take `COC(=O)CCCCCCCCCCCCC1=C(C)C(=O)C(OC)=C(OC)C1=O` [n:12 R:CH3, 2,3-dimethoxy-6-(12-methoxycarbonyldodecyl)-5-methyl-1,4-benzoquinone]: in the assay on succinate oxidase, the “Succinate oxidase activity [oxygen consumption per mg enzyme protein during 1 minute (n atoms oxygen)]” value was determined as 146.10 n atoms oxygen.
